In patent US6849596B1, “Regulatory/unfolding peptides of ezrin” (priority 1999, dated 2005):
Entries after “also recorded” stand apart in the source; their conditions may differ.

Key:
[1] = system: transplanted sarcoma of the uterus SM-322; assay: Transplanted mouse sarcoma SM-322 model; type: in vivo, CBA mice; details: for Percent decrease in tumour volume relative to control: SM-322
Excerpt: Anticancer Activity of Hepreceptor Peptides on the Growth of Transplanted Sarcoma of the Uterus SM-322 and on Cancer of the Uterine Cervix CUS-5 Performed in CBA Mice Using Rupe312 and Rupe414 as Examples Transplanted mouse sarcoma SM-322 model (endothelial tumour). Primary tumours of the uterus were induced in female mice using 1.2 dimethylhydrazine. A few primary tumours were transplanted into syngeneic mice. The first visible nodules started to appear at the point of transplation after 4 days. The life expectancy of the mice with transplanted tumours was 22-24 days. […] The tumours were introduced as a 0.5 ml of tumour suspension (1 g tumour per 10 ml of Igla medium) and ten mice used in each treatment group. […] The average percent decrease of tumour volume relative to the control group was recorded at three time points. The longevity of the mice in the treatment groups and control groups was compared and the histology of the tumours between control and treatment groups was compared.

[2] = system: transplanted cervical cancer CUC-5; assay: Transplanted mouse cervical cancer model CUC-5; type: in vivo, CBA mice; details: for Percent decrease in tumour volume relative to control / Days of life expectancy: CUC-5; for Days of life expectancy: control 47-76
Excerpt: Anticancer Activity of Hepreceptor Peptides on the Growth of Transplanted Sarcoma of the Uterus SM-322 and on Cancer of the Uterine Cervix CUS-5 Performed in CBA Mice Using Rupe312 and Rupe414 as Examples
Transplanted mouse cervical cancer model CUC-5 (epithelial tumour)
Primary tumours were induced in female mice using methylcholantrene. A few primary turnouts were then auto-transplanted into the uterine cervix. The life expectancy of mice with transplanted tumours was 43 days.
CBA female mice weighed 21.4=/−1.2 g. and were 2-3 months old. The tumours were introduced as a 0.5 ml of tumour suspension (1 g tumour per 10 ml of Igla medium) and ten mice used in each treatment group.
Lyophylised peptide were dissolved in sterile physiological saline immediately before use in three concentrations. 0.5 ml of solution was injected twice weekly into the peritoneum of the mice for the duration of the experiment. Three different concentrations of peptide were used leading to three final doses per injection per mouse of 10, 1.0 and 0.1 micrograms.
The average percent decrease of tumour volume relative to the control group was recorded at three time points. The longevity of the mice in the treatment groups and control groups was compared and the histology of the tumours between control and treatment groups was compared.

activated macrophages = assay: Induction of activated macrophages in mice (peritoneal exsudate); type: in vivo
Protocol: Groups of three mice (CDAxC57B1)F1 weighing 22-24 g were injected abdominally with each peptide solution of 1.0 microgram of peptide dissolved in 0.5 ml of physiological saline. After 24 hours the animals were killed using neck vertebrae dislocation and 5 ml of Hanks solution was injected into the abdomen. The abdomen was massaged for 30 seconds and then the peritoneal liquid was collected. The collected liquid was filtered using a nylon filter into siliconised tubes containing 1.5 mg/ml EDTA. The number of nucleus containing cells in […] of filtrate were then assessed under microscopic examination using a Nihon hemocytometer. The cells were pelleted by centrifugation for 5 minutes at 800 g, the pellet was resuspended in fetal calf serum, the cell suspension was dropped on to a glass microscope slide and dried then fixed in methanol and stained with Romanovski's colouring agent. Morphological analysis of the cells of the peritoneal exsudate were performed using an Opton optical microscope at 1600 magnifications. The number of lymphocytes, resting macrophages, activated macrophages, granulocytes and other cell types were assessed.

[3] = system: human Peripheral Blood Mononuclear Cells; assay: In vitro activation of human PBMC, tritiated thymidine incorporation; type: cell-based; details: for incorporation of 3H thymidine: three days, Control 370
Protocol: Peripheral Blood Mononuclear Cells (PBMC) were separated from the peripheral blood of a […] donor using the standard method of fractionation in a ficoll gradient. The PBMC were suspended in culture medium containing RPMI1640 medium plus 10% fetal calf serum, 1 mM L-glutamin and antibiotics (BM). The cell suspension was placed in wells of a 96 hole microwell plate for cell cultivation, (100 microliters of suspension containing 100,000 cells per well). […] The negative control well contained BM but no peptide. The plate was incubated at 37° C. for three days then radioactive ^3H thymidine was added to a final concentration of 1 microcurie per ml. The incorporation of ^3H thymidine into the DNA of the cells was measured using a betacounter using standard procedures. The experiment was repeated twice and the results expressed as an average of the two experiments in radioactive counts per minute.

IL-8 = IL-8 production in human WBC; type: cell-based; details: 48 hour incubation, without peptide 18900
Protocol: The suppressive effect of increasing concentrations of Rupe312, a Hepreceptor peptide, on the expression of IL-8 by human WBC after a 48 hour incubation at 37° C. was detected. IL-8 is a chemotactic factor that is produced in response to inflammatory stimulus which attracts and activates T cells, neutrophils, basophils, granulocytes but not monocyte/macrophages. The inhibition of IL-8 may play a role in the selective activity of Rupe 312 in activating monocytes macrophages. The measurement of IL-8 provides an assay for determining the activity of various Hepreceptor derived peptides.

[4] = 0.1 Microg/mouse IP twice weekly, Day 8
[5] = 0.1 Microg/mouse IP twice weekly, Day 12
[6] = 1 Microg/mouse IP twice weekly, Day 8
[7] = 1 Microg/mouse IP twice weekly, Day 12
[8] = 10 Microg/mouse IP twice weekly, Day 8
[9] = 10 Microg/mouse IP twice weekly, Day 12

For “KKRRETVERE (Hepreceptor peptide) [Rupe312]”, the “Percent decrease in tumour volume relative to control” value [1, 4] was 61%, the “Percent decrease in tumour volume relative to control” value [1, 5] was 34% and the “Percent decrease in tumour volume relative to control” value ([1]; 0.1 Microg/mouse IP twice weekly, Day 15) was 59%. For the same sequence, the “Percent decrease in tumour volume relative to control” value [1, 6] was 67%, the “Percent decrease in tumour volume relative to control” value [1, 7] was 32% and the “Percent decrease in tumour volume relative to control” value ([1]; 1 Microg/mouse IP twice weekly, Day 15) was 38%. The “Percent decrease in tumour volume relative to control” value [1, 8] was 63%, the “Percent decrease in tumour volume relative to control” value [1, 9] was 54% and the “Percent decrease in tumour volume relative to control” value ([1]; 10 Microg/mouse IP twice weekly, Day 15) was 27%. The “histology of the tumours” value ([1]; both models (SM-322 and CUC-5)) was “non bleeding ulcerous destruction of the centre of tumours”, the “Percent decrease in tumour volume relative to control” value [2, 4] was 50% and the “Percent decrease in tumour volume relative to control” value [2, 5] was 18%. For the same sequence, the “Percent decrease in tumour volume relative to control” value ([2]; 0.1 Microg/mouse IP twice weekly, Day 19) was 45%, the “Days of life expectancy” value ([2]; 0.1 Microg/mouse IP twice weekly) was 42 to 76 days and the “Percent decrease in tumour volume relative to control” value [2, 6] was 50%. For the same sequence, the “Percent decrease in tumour volume relative to control” value [2, 7] was 26%, the “Percent decrease in tumour volume relative to control” value ([2]; 1 Microg/mouse IP twice weekly, Day 19) was 49% and the “Days of life expectancy” value ([2]; 1 Microg/mouse IP twice weekly) was 47 to 76 days. The “Percent decrease in tumour volume relative to control” value [2, 8] was 50%, the “Percent decrease in tumour volume relative to control” value [2, 9] was 25% and the “Percent decrease in tumour volume relative to control” value ([2]; 10 Microg/mouse IP twice weekly, Day 19) was 49%. The “Days of life expectancy” value ([2]; 10 Microg/mouse IP twice weekly) was 48 to 76 days, the “change in life expectancy” value ([2]; slower growing transplanted cervical cancer) was “no significant increase (or decrease) in life expectancy was detected” and the “activity in increasing activated macrophages relative to HEP1” value (activated macrophages; 1.0 microgram peptide/mouse) was “significantly more active than HEP1”. For the same sequence, the “Activated macrophages as a percent of total number of cells” value (activated macrophages; 1.0 microgram peptide/mouse injected abdominally, after 24 hours, saline 1.9) was 13.9%, the “activity relative to HEP1” value ([3]; PBMC activation, thymidine incorporation) was “significantly more active than HEP1; also recorded: ten fold higher activity than HEP1” and the “concentration of peak activity” value ([3]; PBMC proliferation) was “around 3 nanograms/ml”. The “incorporation of 3H thymidine” value ([3]; Peptide 0.0001 micro g/ml) was 563 radioactive counts per minute, the “incorporation of 3H thymidine” value ([3]; Peptide 0.0003 micro g/ml) was 742 radioactive counts per minute and the “incorporation of 3H thymidine” value ([3]; Peptide 0.001 micro g/ml) was 976 radioactive counts per minute. The “incorporation of 3H thymidine” value ([3]; Peptide 0.003 micro g/ml) was 3222 radioactive counts per minute, the “incorporation of 3H thymidine” value ([3]; Peptide 0.01 micro g/ml) was 656 radioactive counts per minute and the “incorporation of 3H thymidine” value ([3]; Peptide 0.03 micro g/ml) was 539 radioactive counts per minute. The “incorporation of 3H thymidine” value ([3]; Peptide 0.1 micro g/ml) was 533 radioactive counts per minute, the “incorporation of 3H thymidine” value ([3]; Peptide 0.3 micro g/ml) was 611 radioactive counts per minute and the “incorporation of 3H thymidine” value ([3]; Peptide 1 micro g/ml) was 472 radioactive counts per minute. For the same sequence, the “incorporation of 3H thymidine” value ([3]; Peptide 3 micro g/ml) was 455 radioactive counts per minute, the “incorporation of 3H thymidine” value ([3]; Peptide 10 micro g/ml) was 405 radioactive counts per minute and the “IL-8 concentration in culture” value (IL-8; Rupe312 0.001 micrograms/ml) was 13900 picrograms/ml. The “IL-8 concentration in culture” value (IL-8; Rupe312 0.003 micrograms/ml) was 10700 picrograms/ml, the “IL-8 concentration in culture” value (IL-8; Rupe312 0.01 micrograms/ml) was 8984 picrograms/ml and the “IL-8 concentration in culture” value (IL-8; Rupe312 0.03 micrograms/ml) was 7869 picrograms/ml. The “IL-8 concentration in culture” value (IL-8; Rupe312 0.1 micrograms/ml) was 6426 picrograms/ml.
